From patent publication US20160355475A1, “NOVEL INDOLE DERIVATIVE COMPOUND AND PHARMACEUTICAL COMPOSITION COMPRISING THE SAME” (CHONG KUN DANG PHARMACEUTICAL CORP., priority 2014, published 2016)

How the values were obtained:
[1] = system: tubulin acetylation (HDAC6); experiment: Western blot of tubulin acetylation in RPMI8226 cells; format: cell-based; conditions: 24 hours, FIG. 1
Experimental: (§1) Specifically, RPMI8226 cells were seeded into a six-well plate at a density of 1.0×10^6 cells/well, and then treated with varying concentrations of compound 528. After 24 hours, protein was extracted from the cells using RIPA buffer and quantified by the Bradford method. 25 μg of the protein was added to sample buffer and electrophoresed on 4-12% gradient gel, and the gel was transferred to a nitrocellulose membrane for 50 minutes. The membrane was blocked in 5% skim milk solution for 1 hour. Anti-acetyl H3 antibody (1:2,000), anti-acetyl H4 antibody (1:5,000), anti-acetyl tubulin antibody (1:5,000) and anti-β-actin antibody (1:10,000) were added to 5% skim milk, and the membrane was immersed in the skim milk and allowed to react at 4° C. for 16 hours, after which it was washed three times with 1×TBS-T for 10 minutes each washing. IgG-HRP antibody (1:5,000) was added to the 5% skim milk, and the membrane was immersed in the skim milk and allowed to react at room temperature for 40 minutes, after which it was washed three times with 1×TBS-T for 10 minutes each washing. Detection was performed by LAS 3000 using ECL solution.

HDAC6 human recombinant = target: T1, HDAC6 human recombinant (Homo sapiens, UniProt Q9UBN7); experiment: HDAC6 enzyme activity inhibition (fluorimetric, in vitro); format: biochemical; conditions: 37° C., 60 minutes; tested at 0.1, 1, 10, 100 and 1000 nM
T1 construct: purchased Calbiochem 382180
T1 sequence (Q9UBN7 1-1215): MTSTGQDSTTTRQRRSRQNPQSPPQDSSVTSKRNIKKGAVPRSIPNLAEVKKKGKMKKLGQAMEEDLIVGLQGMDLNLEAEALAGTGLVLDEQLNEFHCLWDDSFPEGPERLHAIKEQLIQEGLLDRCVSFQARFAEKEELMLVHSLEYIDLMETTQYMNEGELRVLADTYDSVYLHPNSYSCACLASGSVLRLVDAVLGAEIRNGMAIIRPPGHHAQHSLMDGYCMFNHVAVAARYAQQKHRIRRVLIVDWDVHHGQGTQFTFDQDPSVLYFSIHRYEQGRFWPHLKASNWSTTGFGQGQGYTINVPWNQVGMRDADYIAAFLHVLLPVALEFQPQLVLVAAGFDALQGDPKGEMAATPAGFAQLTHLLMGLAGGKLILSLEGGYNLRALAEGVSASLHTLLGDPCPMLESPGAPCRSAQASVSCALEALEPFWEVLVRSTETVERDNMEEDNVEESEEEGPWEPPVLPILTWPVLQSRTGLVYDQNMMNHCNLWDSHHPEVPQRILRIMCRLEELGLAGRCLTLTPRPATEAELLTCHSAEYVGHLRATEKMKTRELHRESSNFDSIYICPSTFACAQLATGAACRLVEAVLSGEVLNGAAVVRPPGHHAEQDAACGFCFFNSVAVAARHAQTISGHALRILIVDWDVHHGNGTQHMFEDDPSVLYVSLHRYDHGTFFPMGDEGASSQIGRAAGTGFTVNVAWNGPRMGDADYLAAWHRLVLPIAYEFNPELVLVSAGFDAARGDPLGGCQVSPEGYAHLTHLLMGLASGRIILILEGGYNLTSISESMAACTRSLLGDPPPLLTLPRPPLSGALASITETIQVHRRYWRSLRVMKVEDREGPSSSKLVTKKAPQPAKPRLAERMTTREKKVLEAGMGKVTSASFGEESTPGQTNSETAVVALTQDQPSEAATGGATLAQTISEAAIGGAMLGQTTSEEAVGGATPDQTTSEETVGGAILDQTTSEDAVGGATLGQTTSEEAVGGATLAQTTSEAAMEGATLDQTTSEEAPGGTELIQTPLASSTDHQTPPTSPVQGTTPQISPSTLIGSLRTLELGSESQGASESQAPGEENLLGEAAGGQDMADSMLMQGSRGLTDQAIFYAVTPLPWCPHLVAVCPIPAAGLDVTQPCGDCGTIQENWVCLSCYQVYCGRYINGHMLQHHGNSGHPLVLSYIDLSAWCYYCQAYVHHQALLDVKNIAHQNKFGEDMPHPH
In short: (§2)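 Fluorimetric deacetylase assay using an HDAC1 kit and human recombinant HDAC6. Compounds tested at 100–10000 nM (HDAC1) or 0.1–1000 nM (HDAC6), reacted 60 min at 37 °C, then developer 30 min at 37 °C before fluorescence read. Values in μM.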

[2] = Distribution in brain tissue and plasma of ICR mice after oral administration; format: in vivo; conditions: mouse, 50 mg/kg PO, 0.5, 1 and 2 hours, LC-MS/MS, FIG. 2, read-out: concentration in the plasma tissue relative to that in the brain tissue
Experimental: The distribution of the compound of the present invention in the brain tissue of ICR mice was examined. Specifically, the compound of the present invention was administered orally (PO) to ICR mice at a dose of 50 mg/kg. At 0.5, 1 and 2 hours after administration, blood was collected from the orbital venous plexus of the mice. After the mice were euthanized, the brain tissue (including cerebral, cerebellar and medullar tissues) was extracted.
The blood was centrifuged at 13000 rpm for 4 minutes, and then 30 μL of plasma was collected, and an organic solvent (90 wt % acetonitrile in methanol) was added thereto to remove protein. Then, the solution was centrifuged, and the supernatant was collected.
In addition, saline was added to the isolated brain tissue, and homogenized using a homogenizer. From the homogenized dilution, 100 μL of a sample was taken, and an organic solvent (90 wt % acetonitrile in methanol) was added thereto to remove protein, after which the solution was centrifuged, and the supernatant was collected. The concentrations of the compound of the present invention in the pretreated plasma and brain tissue solutions were analyzed by LC-MS/MS.

HDAC1 = target: T2, HDAC1 (Homo sapiens, UniProt Q13547); experiment: HDAC1 enzyme activity inhibition (HDAC1 fluorimetric drug discovery assay kit); format: biochemical; conditions: 37° C., 60 minutes; tested at 100, 1000 and 10000 nM
T2 construct: purchased Enzolifesciences BML-AK511
In short: as §2

[3] = system: histone acetylation (HDAC1); experiment: Western blot of histone H3 and H4 acetylation in RPMI8226 cells; format: cell-based; conditions: 24 hours, FIG. 1
Experimental: as §1

T2 sequence (Q13547 whole entry): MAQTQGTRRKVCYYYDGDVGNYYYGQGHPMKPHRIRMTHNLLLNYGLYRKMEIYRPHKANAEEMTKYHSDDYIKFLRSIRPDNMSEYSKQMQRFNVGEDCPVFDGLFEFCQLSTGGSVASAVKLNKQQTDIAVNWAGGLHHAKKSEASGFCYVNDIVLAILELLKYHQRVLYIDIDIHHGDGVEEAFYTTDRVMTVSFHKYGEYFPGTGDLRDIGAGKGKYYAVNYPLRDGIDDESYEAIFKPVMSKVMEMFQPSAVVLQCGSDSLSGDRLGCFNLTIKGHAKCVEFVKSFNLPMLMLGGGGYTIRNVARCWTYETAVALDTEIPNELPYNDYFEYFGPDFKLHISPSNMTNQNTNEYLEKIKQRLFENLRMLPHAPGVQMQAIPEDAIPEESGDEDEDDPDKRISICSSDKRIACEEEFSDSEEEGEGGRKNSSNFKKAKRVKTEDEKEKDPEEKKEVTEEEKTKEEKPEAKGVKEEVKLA

| SMILES | compound concentration at which tubulin acetylation (HDAC6) appeared [1] [nM] | IC50 (HDAC6 human recombinant) [µM] | Kp [2] | IC50 (HDAC1) [µM] | compound concentration at which histone acetylation (HDAC1) appeared [3] |
| --- | --- | --- | --- | --- | --- |
| Cc1c(Cc2ccc(C(=O)NO)cc2)c2ccccc2n1CC1CCN(CC(C)(C)F)CC1 [Compound 528, 4-((1-((1-(2-fluoro-2-methylpropyl)piperidin-4-yl)methyl)-2-methyl-1H-indol-3-yl)methyl)-N-hydroxybenzamide] | 100 | 0.074 | ≥ 0.5 | 8 | at least 3 uM |
| Cc1c(Cc2ccc(C(=O)NO)cc2)c2ccccc2n1CCCCN1CCN(CC(C)(C)F)CC1 [Compound 639, 4-((1-(4-(4-(2-Fluoro-2-methylpropyl)piperazin-1-yl)butyl)-2-methyl-1H-indol-3-yl)methyl)-N-hydroxybenzamide] |  | 0.076 |  | 4.98 |  |
| Cc1c(Cc2ccc(C(=O)NO)cc2)c2ccccc2n1CCCN1CCN(CC(C)(C)F)CC1 [Compound 640, 4-((1-(3-(4-(2-Fluoro-2-methylpropyl)piperazin-1-yl)propyl)-2-methyl-1H-indol-3-yl)methyl)-N-hydroxybenzamide] |  | 0.115 |  | 7.6 |  |
| Cc1c(Cc2ccc(C(=O)NO)cc2)c2ccccc2n1CC1CCN(CC2(C)COC2)CC1 [Compound 643, N-hydroxy-4-((2-methyl-1-((1-((3-methyloxetan-3-yl)methyl)piperidin-4-yl)methyl)-1H-indol-3-yl)methyl)benzamide] |  | 0.028 |  | 4.58 |  |
| Cc1c(Cc2ccc(C(=O)NO)cc2)c2ccccc2n1CC1CCN(CC2(F)CCN(C)CC2)CC1 [Compound 679, 4-((1-((1-((4-Fluoro-1-methylpiperidin-4-yl)methyl)piperidin-4-yl)methyl)-2-methyl-1H-indol-3-yl)methyl)-N-hydroxybenzamide] |  | 0.013 |  | 0.832 |  |
| Cc1c(Cc2ccc(C(=O)NO)cc2)c2ccccc2n1CC1CCN(CC2(F)CCN(C(C)C)CC2)CC1 [Compound 681, 4-((1-((1-((4-Fluoro-1-isopropylpiperidin-4-yl)methyl)piperidin-4-yl)methyl)-2-methyl-1H-indol-3-yl)methyl)-N-hydroxybenzamide] |  | 0.037 |  | 0.802 |  |
| Cc1c(Cc2ccc(C(=O)NO)cc2)c2ccccc2n1CC1CCN(CC2(F)CCN(S(C)(=O)=O)CC2)CC1 [Compound 696, 4-((1-((1-((4-Fluoro-1-(methylsulfonyl)piperidin-4-yl)methyl)piperidin-4-yl)methyl)-2-methyl-1H-indol-3-yl)methyl)-N-hydroxybenzamide] |  | 0.123 |  | > 10 |  |
| Cc1c(Cc2ccc(C(=O)NO)cc2)c2ccccc2n1CC1CCN(CC2(F)CCCCC2)CC1 [Compound 698, 4-((1-((1-((1-Fluorocyclohexyl)methyl)piperidin-4-yl)methyl)-2-methyl-1H-indol-3-yl)methyl)-N-hydroxybenzamide] |  | 0.43 |  | > 10 |  |
| Cc1c(Cc2ccc(C(=O)NO)cc2)c2ccccc2n1CC1CCN(CC(C)(C)F)C1 (centres unmarked) [Compound 713, 4-((1-((1-(2-Fluoro-2-methylpropyl)pyrrolidin-3-yl)methyl)-2-methyl-1H-indol-3-yl)methyl)-N-hydroxybenzamide] |  | 0.246 |  | > 10 |  |
| Cc1c(Cc2ccc(C(=O)NO)cc2)c2ccccc2n1CC1CCN(CC2(C(F)(F)F)CCC2)CC1 [Compound 728, N-hydroxy-4-((2-methyl-1-((1-((1-(trifluoromethyl)cyclobutyl)methyl)piperidin-4-yl)methyl)-1H-indol-3-yl)methyl)benzamide] |  | 1.19 |  | > 10 |  |
| CC(C)(F)CN1CCC(Cn2cc(C(O)c3ccc(C(=O)NO)cc3)c3cccnc32)CC1 (centres unmarked) [Compound 747, 4-((1-((1-(2-Fluoro-2-methylpropyl)piperidin-4-yl)methyl)-1H-pyrrolo[2,3-b]pyridin-3-yl)(hydroxy)methyl)-N-hydroxybenzamide] |  | 0.334 |  | 6.1 |  |
| CC(C)(F)CN1CCC(Cn2cc(Cc3ccc(C(=O)NO)cc3)c3cccnc32)CC1 [Compound 748, 4-((1-((1-(2-Fluoro-2-methylpropyl)piperidin-4-yl)methyl)-1H-pyrrolo[2,3-b]pyridin-3-yl)methyl)-N-hydroxybenzamide] |  | 0.14 |  | 3.88 |  |
| Cc1c(Cc2ccc(C(=O)NO)cc2)c2ccccc2n1CC1CN(CC2(F)COC2)C1 [Compound 749, 4-((1-((1-((3-Fluorooxetan-3-yl)methyl)azetidin-3-yl)methyl)-2-methyl-1H-indol-3-yl)methyl)-N-hydroxybenzamide] |  | 0.092 |  | 8.59 |  |
